Measured values as given in US6825230B2, “Spiro and dispiro 1,2,4-trixolane antimalarials” (Medicines for Malaria Venture MMV, priority 2002, dated 2004).
In brackets after ≈: the same amount, converted by molar mass.

What was measured:
[1] = system: chloroquine-resistant K1 strain of P. falciparum; assay: In vitro antimalarial semiautomated microdilution assay ([3H]-hypoxanthine incorporation), K1 strain; format: cell-based, Plasmodium falciparum; conditions: Plasmodium falciparum; chloroquine-resistant K1 strain, 72 h incubation; read-out: IC50 (ng/ml) K1
Outline: (§1)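 IC50 values come from Logit regression of [3H]-hypoxanthine uptake data. Parasites were intraerythrocytic P. falciparum forms taken from asynchronous stock cultures and tested by semiautomated microdilution.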

[2] = system: chloroquine-sensitive NF54 strain of P. falciparum; assay: In vitro antimalarial semiautomated microdilution assay ([3H]-hypoxanthine incorporation), NF54 strain; format: cell-based, Plasmodium falciparum; conditions: Plasmodium falciparum; chloroquine-sensitive NF54 strain, 72 h incubation; read-out: IC50 (ng/ml) NF54
Outline: as §1

[3] = system: ANKA strain of Plasmodium berghei; assay: Single dose ED50/ED90/ED99 determination in infected mice; format: in vivo
Outline: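 Moro SPF or NMRI mice (three per group) infected with P. berghei ANKA were dosed once on day 1 post-infection in SSV (0.5% CMC, 0.5% benzyl alcohol, 0.4% Tween 80, 0.9% NaCl). Parasitemia reduction was scored on day 3; ED values (mg/kg) came from nonlinear fitting.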

P. berghei ANKA strain [4] = assay: Divided 3x3 mg/kg and 3x1 mg/kg po doses in infected mice; format: in vivo, Plasmodium berghei
Outline: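 Male NMRI mice were infected i.v. with 2×10^7 P. berghei-parasitized erythrocytes on day 0, then dosed orally in SSV vehicle on days 1, 2 and 3 post-infection.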

P. berghei ANKA strain [5] = assay: Divided 3x10 mg/kg vs single 1x30 mg/kg po dose in infected mice; format: in vivo, Plasmodium berghei
P. berghei ANKA strain [6] = assay: Prophylactic activity, single 100 mg/kg po at various times before infection; format: in vivo, Plasmodium berghei
[7] = system: ANKA strain of P. berghei; assay: Single dose STI in vivo screen in infected mice; set-up: species or system Plasmodium berghei; conditions: 10 mg/kg
[8] = Pharmacokinetics in dogs (IV and oral dosing); conditions: in vivo, dog; for bioavailability: some values marked (V), not defined
Source text: (§2) Artesunate is listed as a reference compound.

[9] = system: Schistosoma mansoni adult worms (49-day-old); assay: Effect on adult schistosomes (49-day-old) in infected mice; format: in vivo
Description: Mice were infected with 100 Schistosoma mansoni cercariae on day 49 post-treatment. Each group was treated per os with OZ compounds at single doses of 200, 400, and 600 mg/kg. Untreated mice served as the control. All groups were killed 4 weeks after treatment and the liver and intestine were removed and separated. The liver and intestine were compressed and alive male and female worms could be seen and counted.

[10] = Pharmacokinetics in rats (IV and oral dosing); conditions: rat, in vivo
Source text: as §2

## NC[C@H]1CC[C@]2(CC1)OOC1(O2)C2CC3CC(C2)CC1C3 (stereo partly drawn) [OZ209]
[1]
  IC50: 0.21 ng/mL (≈ 0.716 nM)
[2]
  IC50: 0.32 ng/mL (≈ 1.09 nM)
[3]; Plasmodium berghei, single dose po in SSV on day 1 post-infection, parasitemia day 3, nonlinear fitting, read-out: ED50
  ED50: 0.55 mg/kg
[3]; po
  ED90: 1.4 mg/kg
[3]; single dose po in SSV on day 1 post-infection, parasitemia day 3, nonlinear fitting
  ED99: 3.0 mg/kg
P. berghei ANKA strain [4]; 3 mg/kg po (SSV) on days 1, 2, 3 post-infection, parasitemia reduction on day 4
  Activity at the 3×3 mg/kg dose: 100%
P. berghei ANKA strain [4]; 3 × 1 mg/kg p.o. SSV on days 1, 2, 3 post-infection
  Survival: 9.4 days
P. berghei ANKA strain [4]; 3 × 3 mg/kg p.o. SSV on days 1, 2, 3 post-infection
  Survival: 16.4 days
P. berghei ANKA strain [4]; 3 × 3 mg/kg p.o. SSV on days 1, 2, 3 post-infection, percent reduction of parasitemia vs control on day 4
  Activity (%): 100%
P. berghei ANKA strain [4]; po, 1 mg/kg, 96 h
  Activity (%): 99.51%
P. berghei ANKA strain [4]; po, 3 mg/kg, 720 h
  Cures: 0\5
P. berghei ANKA strain [5]; 10 mg/kg po on days 1, 2, 3 post-infection
  Survival (days) 3 × 10 mg/kg p.o. SSV: >30 days
P. berghei ANKA strain [5]; po, 10 mg/kg, 96 h
  Activity (%) 3 × 10 mg/kg p.o. SSV: 100%
P. berghei ANKA strain [5]; po, 10 mg/kg, 720 h
  Cures 3 × 10 mg/kg p.o. SSV: 3\3
P. berghei ANKA strain [5]; po, 30 mg/kg
  Activity (%) 1 × 30 mg/kg p.o. SSV: 100%
P. berghei ANKA strain [5]; po, 30 mg/kg, 720 h
  Cures 1 × 30 mg/kg p.o. SSV: 0/5
P. berghei ANKA strain [5]; single 30 mg/kg po on day 1 post-infection
  Survival (days) 1 × 30 mg/kg p.o. SSV: >30 days
P. berghei ANKA strain [6]; po, 100 mg/kg
  Prophylactic Activity (%) 72 h: 99.92%
P. berghei ANKA strain [6]; single 100 mg/kg po
  Duration of prophylactic protection: 3 days
P. berghei ANKA strain [6]; single 100 mg/kg po 24 h before infection, parasitemia reduction on day 3 post-infection
  Prophylactic Activity (%) 24 h: 100%
P. berghei ANKA strain [6]; single 100 mg/kg po 48 h before infection, parasitemia reduction on day 3 post-infection
  Prophylactic Activity (%) 48 h: 99.9%
P. berghei ANKA strain [6]; single 100 mg/kg po at 0 h, parasitemia reduction on day 3 post-infection
  Prophylactic Activity (%) 0 h: 100%
[7]; single 10 mg/kg po in 3% ethanol and 7% Tween 80, untreated 6-7 days
  Survival (days) 10 mg/kg po: 9.5 days
[7]; single 10 mg/kg po in 3% ethanol and 7% Tween 80 on day 1 post-infection, percent reduction in parasitemia on day 3
  Activity (%) 10 mg/kg po: 99.94%
[7]; single 10 mg/kg po in SSV, untreated 6-7 days
  Survival (days) 10 mg/kg SSV po: 10.0 days
[7]; single 10 mg/kg po in standard suspending vehicle (SSV) on day 1 post-infection, percent reduction in parasitemia on day 3
  Activity (%) 10 mg/kg SSV po: 99.96%
[7]; single 10 mg/kg sc in 3% ethanol and 7% Tween 80, untreated 6-7 days
  Survival (days) 10 mg/kg sc: 12.5 days
[7]; single 10 mg/kg sc in 3% ethanol and 7% Tween 80 on day 1 post-infection, percent reduction in parasitemia on day 3
  Activity (%) 10 mg/kg sc: 99.97%
[8]; IV 10 mg/kg
  half-life: 3.05 h
[8]; oral 10 mg/kg
  half-life: 2.12 h
[8]; oral 10 mg/kg, read-out: Dog Oral Bioavailability 10 mg/kg
  bioavailability: 24.5%
[8]; oral 25 mg/kg, read-out: Dog Oral Bioavailability 25 mg/kg
  bioavailability: 15.9%
[9]; single 200 mg/kg per os, 49-day-old adults, total worm reduction rate
  % reduction of adult worms growth at day 49 after per os application of 200 mg/kg, TWR (%): 39%
[9]; single 200 mg/kg per os, percentage of dead worm in the liver
  Adult worms day 49, per os 200 mg/kg, DEAD WORM (%): 34%
[9]; single 400 mg/kg per os, 49-day-old adults, total worm reduction rate
  % reduction of adult worms growth at day 49 after per os application of 400 mg/kg, TWR (%): 16%
[9]; single 400 mg/kg per os, percentage of dead worm in the liver
  Adult worms day 49, per os 400 mg/kg, DEAD WORM (%): 28%
[9]; single 600 mg/kg per os, 49-day-old adults, total worm reduction rate
  % reduction of adult worms growth at day 49 after per os application of 600 mg/kg, TWR (%): 41/ %
[9]; single 600 mg/kg per os, percentage of dead worm in the liver
  Adult worms day 49, per os 600 mg/kg, DEAD WORM (%): 21++ %
[10]; iv, 10 mg/kg
  half-life: 2.5 h
[10]; po, 10 mg/kg
  bioavailability: 12.4%
[10]; po, 25 mg/kg
  bioavailability: 22.4%
  half-life: 1.69 h
